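Tested at 5 concentrations; 48 h exposure; 96-well plates; endpoints linearly interpolated, else capped at highest concentration. At the GI50, growth is halved. The concentration for full growth arrest is given as TGI.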
Assays:
Test in all cases: DTP human tumour cell line panel, 48 h
[1] = test system: 786-0 renal
[2] = test system: A498 renal
[3] = test system: A549 NSCLC
[4] = test system: BT-549 breast
[5] = test system: CAKI-1 renal
[6] = test system: CCRF-CEM leukemia
[7] = test system: COLO 205 colon
[8] = test system: DU-145 prostate
[9] = test system: EKVX NSCLC
[10] = test system: HCC-2998 colon
[11] = test system: HCT-116 colon
[12] = test system: HL-60(TB) leukemia
[13] = test system: HOP-92 NSCLC
[14] = test system: HT29 colon
[15] = test system: IGROV1 ovarian
[16] = test system: K-562 leukemia
[17] = test system: KM12 colon
[18] = test system: LOX IMVI melanoma
[19] = test system: M14 melanoma
[20] = test system: MALME-3M melanoma
[21] = test system: MCF7 breast
[22] = test system: MDA-MB-231 breast
[23] = test system: MDA-MB-435
[24] = test system: MOLT-4 leukemia
[25] = test system: NCI-H23 lung
[26] = test system: NCI-H522 lung
[27] = test system: NCI/ADR-RES ovarian
[28] = test system: OVCAR-3 ovarian
[29] = test system: OVCAR-4 ovarian
[30] = test system: OVCAR-5 ovarian
[31] = test system: OVCAR-8 ovarian
[32] = test system: PC-3 prostate
[33] = test system: RPMI-8226 leukemia
[34] = test system: RXF 393 renal
[35] = test system: SF-268 CNS
[36] = test system: SF-295 CNS
[37] = test system: SF-539 CNS
[38] = test system: SK-MEL-2 melanoma
[39] = test system: SK-MEL-28 melanoma
[40] = test system: SK-MEL-5 melanoma
[41] = test system: SN12C renal
[42] = test system: SNB-19 CNS
[43] = test system: SNB-75 CNS
[44] = test system: SR leukemia
[45] = test system: SW-620 colon
[46] = test system: T-47D breast
[47] = test system: TK-10 renal
[48] = test system: UACC-257 melanoma
[49] = test system: UACC-62 melanoma

Molecule `O=C1c2cccnc2C(=O)c2c1c(C(=O)OCCCN1CCOCC1)c1ccccn21` has a GI50 [1] of 12.4 nM, a TGI [1] of 40.3 nM and a GI50 [2] of 29.5 nM. It also gave a TGI [2] of 2090 nM, a GI50 [3] of less than 10 nM and a TGI [3] of 72 nM. For the same molecule, the GI50 [4] was 37.5 nM, the TGI [4] was 1820 nM and the GI50 [5] was less than 10 nM. The TGI [5] was 50.9 nM, the GI50 [6] was 49.3 nM and the GI50 [7] was 55.3 nM. For the same molecule, the TGI [7] was 308 nM, the GI50 [8] was less than 10 nM and the TGI [8] was 1290 nM. For the same molecule, the GI50 [9] was 75.8 nM, the TGI [9] was 1750 nM and the GI50 [10] was less than 10 nM. The TGI [10] was 3150 nM, the GI50 [11] was less than 10 nM and the TGI [11] was 184 nM. For the same molecule, the GI50 [12] was 36.1 nM, the TGI [12] was 2760 nM and the GI50 [13] was 151 nM. The TGI [13] was 929 nM, the GI50 [14] was 354 nM and the TGI [14] was 2180 nM. It also gave a GI50 [15] of 16.3 nM, a TGI [15] of 3200 nM and a GI50 [16] of less than 12.4 nM. For the same molecule, the GI50 [17] was 33.3 nM, the TGI [17] was 15400 nM and the GI50 [18] was less than 10 nM. The TGI [18] was 15.2 nM, the GI50 [19] was less than 10 nM and the TGI [19] was 69.9 nM. It also gave a GI50 [20] of 12.5 nM, a TGI [20] of 1710 nM and a GI50 [21] of less than 10 nM. For the same molecule, the TGI [21] was less than 11.6 nM, the GI50 [22] was 1320 nM and the TGI [22] was 15800 nM. For the same molecule, the GI50 [23] was less than 11.8 nM, the TGI [23] was 2060 nM and the GI50 [24] was 135 nM. For the same molecule, the TGI [24] was 12500 nM, the GI50 [25] was less than 10 nM and the GI50 [26] was less than 10 nM. The TGI [26] was less than 12.7 nM, the GI50 [27] was less than 10 nM and the TGI [27] was 2210 nM. For the same molecule, the GI50 [28] was 20.1 nM, the TGI [28] was 528 nM and the GI50 [29] was 940 nM. For the same molecule, the TGI [29] was 3990 nM, the GI50 [30] was 79.4 nM and the TGI [30] was 4730 nM. For the same molecule, the GI50 [31] was less than 10 nM, the TGI [31] was 1920 nM and the GI50 [32] was 14.7 nM. It also gave a TGI [32] of 4940 nM, a GI50 [33] of 25.2 nM and a TGI [33] of 1130 nM. It also gave a GI50 [34] of less than 10 nM, a TGI [34] of 23.5 nM and a GI50 [35] of less than 10 nM. It also gave a TGI [35] of 10700 nM, a GI50 [36] of 16.7 nM and a TGI [36] of 69.8 nM. It also gave a GI50 [37] of less than 10 nM, a TGI [37] of 37.2 nM and a GI50 [38] of 20.5 nM. The TGI [38] was 56.9 nM, the GI50 [39] was 65.8 nM and the TGI [39] was 4570 nM. It also gave a GI50 [40] of less than 11.4 nM, a TGI [40] of 95.1 nM and a GI50 [41] of less than 10 nM. It also gave a TGI [41] of 1820 nM, a GI50 [42] of less than 10 nM and a TGI [42] of 4130 nM. It also gave a GI50 [43] of less than 10 nM, a TGI [43] of 15 nM and a GI50 [44] of less than 10 nM. It also gave a TGI [44] greater than 100000 nM, a GI50 [45] of less than 10 nM and a TGI [45] of 1750 nM. It also gave a GI50 [46] of 178 nM, a TGI [46] of 5940 nM and a GI50 [47] of 29.2 nM. For the same molecule, the TGI [47] was 5570 nM, the GI50 [48] was 18.2 nM and the TGI [48] was 75.8 nM. It also gave a GI50 [49] of less than 10 nM and a TGI [49] of 24.4 nM.
